Test results: patent US20220265836A1, “COMPLEX, MEDICINE, THERAPEUTIC AGENT FOR CANCER, KIT AND CONJUGATE” (TOKYO INSTITUTE OF TECHNOLOGY, priority 2019, published 2022)
Marks after values point to notes of the source that are not given here. Values belong to the compound of their own block, whether it stands above or below them.

What was measured:
[1] = Formation of ternary complex encapsulating various substances: particle diameter by DLS or FCS; type: physicochemical; settings: for Particle diameter of encapsulated substance: substance alone
Procedure: Ternary complexes were formed using not only the GFP protein but also a small molecule medicine, a peptide, an adeno-associated virus, an inorganic particle, a nucleic acid, and the like, and the particle diameter change was measured. As the measurement method, dynamic light scattering (DLS) or fluorescence correlation spectroscopy (FCS) was used.
Temperature: 25° C., measurement time: 10 seconds, number of integrations: 10 times
The method for measuring dynamic light scattering is as follows. Dynamic Light Scattering (DLS Zetasizer Nano ZS (manufactured by Malvern Instruments) was used to carry out DLS measurement at a detection angle of […] and a temperature of 25° C. A He—Ne laser (633 nm) was used as the incident beam. Each complex solution was added to a small glass cuvette (capacity: 12 μL, ZEN2112, manufactured by Malvern Instruments). The data obtained from the decay rate in the photon correlation function was analyzed by the Cumulant method, and then the hydrodynamic diameter (the arithmetic mean diameter based on the number of complexes) of each complex was calculated by the above Einstein-Stokes equation. […]
The pitavastatin solution and the tannic acid solution were mixed to adjust a pitavastatin/TA solution. Then, PEG-P[Lys(FPBA)10]20 was added to the pitavastatin/TA solution to adjust a pitavastatin/TA/PEG-P[Lys(FPBA)10]20 (a pitavastatin ternary complex) solution. […]

[2] = Bonding force by alizarin red method, PEG-P[Lys(FPBA)10]20; type: binding; settings: for relative equilibrium constant with PEG10k-P[Lys(FPBA)10]20: alizarin red method, Ex 468 nm/Em 572 nm
Procedure: (§1) The bonding force was evaluated by the alizarin red method, which has been established as a method for quantifying the bonding force between boronic acid and the diol structure. The principle of the alizarin red method is briefly shown below by taking the method carried out in present Examples as an example.
[Final Concentrations of GFP, TA, PEG-FPBA, and PEG-P[Lys(FPBA)10]20] • Solution A: ARS (9.0×10^−6 M) • Solution B: ARS (9.0×10^−6 M)+PEG-FPBA (FPBA concentration: 2.0×10^−3 M) • Solution C: ARS (9.0×10^−6 M)+PEG-P[Lys(FPBA)10]20 (FPBA concentration: 2.0×10^−3 M) • Solution D: ARS (9.0×10^−6 M)+PEG-FPBA (FPBA concentration: 2.0×10^−3 M)+tannic acid (diol concentration=5.0×10^−4 M) • Solution E: ARS (9.0×10^−6 M)+PEG-FPBA (2.0×10^−3 M)+gallic acid (diol concentration=5.0×10^−4 M) • Solution F: ARS (9.0×10^−6 M)+PEG-P[Lys(FPBA)10]20 (FPBA concentration: 2.0×10^−3 M)+tannic acid (diol concentration=5.0×10^−4 M) • Solution G: ARS (9.0×10^−6 M)+PEG-P[Lys(FPBA)10]20 (FPBA concentration: 2.0×10^−3 M)+gallic acid (diol concentration=5.0×10^−4 M)
(§2) Solution A, and Solution B or Solution C were mixed in various ratios and the fluorescence measurement was performed (Ex=468 nm, Em=572 nm) using a disposable cell. After substituting the obtained fluorescence intensity and the concentration of each FPBA into the following expression (1) and creating a calibration curve by the least squares method, the equilibrium constant K0 of the ARS-FPBA system was calculated from the slope of the calibration curve. Next, Solution B or Solution C was mixed with Solution D, E, F, or G containing each diol compound in various ratios in the combination of B+D, B+E, C+F, and C+G, and the fluorescence measurement was performed (Ex=468 nm, Em=572 nm) using a disposable cell. After substituting the obtained fluorescence intensity and the concentration of each diol compound into the following expression (2) and creating a calibration curve by the least squares method, the equilibrium constant K1 of each diol compound-BPA system was calculated from the slope of the calibration curve. The equilibrium constant obtained from the calibration curve is shown in Table 2 as a relative equilibrium constant.
[formula] • [L0]=Concentration of FPBA added • [S0]=Concentration of diol added • [I0]=Concentration of ARS
ΔIf=Ifs−Ifa • ΔIfc=Reciprocal of intercept of graph created in ARS-FPBA system • Ifs=Fluorescence intensity of ARS-FPBA • Ifa=Fluorescence intensity of solution A • K0=Equilibrium constant of ARS-FPBA • Kf=Equilibrium constant of diol compound—equilibrium constant of FPBA

[3] = Bonding force by alizarin red method, PEG-FPBA; type: binding; settings: Ex 468 nm/Em 572 nm
Procedure: as §1, with “example. […]” for “example.”
as §2, with “The equilibrium constant obtained from the calibration curve is shown in Table 2 as a relative equilibrium constant.” left out

[4] = Pharmacokinetics of rose bengal ternary complex (blood retention); type: in vivo, mouse; settings: 3 hours after intravenous administration, plasma fluorescence
Procedure: [Final Concentrations of rose bengal, TA, and PEG-P[Lys(FPBA)10]20] • Rose bengal: 0.1 mg/mL • Tannic acid: 1.0 mg/mL • PEG-P[Lys(FBPA)10]20: 16.5 mg/mL
The rose bengal solution and the tannic acid solution were mixed to adjust a rose bengal/TA solution. Then, PEG-P[Lys(FPBA)10]20 was added to the rose bengal/TA solution to adjust a rose bengal solution, a rose bengal/TA complex solution, and a rose bengal/TA/PEG-P[Lys(FPBA)10]20 (a rose bengal ternary complex) solution.
200 μl of the prepared solution described above was intravenously administered to the tail vein of the model mouse. One to three hours after the sample administration, dissection was carried out to recover blood, which was subsequently subjected to centrifugation at 5,000 g×10 minutes at 20° C. to recover 100 μl of a plasma component, and 700 μl of Passive Lysis Buffer was added thereto. Then, the fluorescence intensities (Ex/Em: 520 nm/570 nm) of the plasma component and the administered sample were measured with Spark to evaluate the blood retention. In the figure, rose bengal/TA/PEG-P[Lys(FPBA)10]20 is denoted by a rose bengal/TA/polymer.

Compound: C=Cc1c(C)c2cc3nc(c(CC(=O)O)c4[nH]c(cc5nc(cc1[nH]2)C(C)=C5CC)c(C)c4C(=O)O)[C@@H](CCC(=O)O)[C@@H]3C [Chlorine 6, Chlorin e6]
- Particle diameter of encapsulated substance [1]: 1.2 nm

Compound: O=C(O)c1cc(O)c(O)c(O)c1 [Gallic acid]
- bonding constant with PEG-P[Lys(FPBA)10]20 as compared with PEG-FPBA [2]: 2.5 times
- relative equilibrium constant with PEG10k-P[Lys(FPBA)10]20 [2]: 5,112
- relative equilibrium constant with PEG-FPBA [3]: 2,030

Compound: O=C([O-])C[C@H](O)C[C@H](O)/C=C/c1c(C2CC2)nc2ccccc2c1-c1ccc(F)cc1.O=C([O-])C[C@H](O)C[C@H](O)/C=C/c1c(C2CC2)nc2ccccc2c1-c1ccc(F)cc1.[Ca+2] [Pitavastatin calcium]
- Particle diameter of encapsulated substance [1]: Aggregated
- Particle diameter of encapsulated substance ([1]; listed as pitavastatin): 4586 nm

- concentration in blood [4]: about 0.22%
- Particle diameter of encapsulated substance [1]: 0.7 nm
Compound: O=C(O)c1c(Cl)c(Cl)c(Cl)c(Cl)c1-c1c2cc(I)c(=O)c(I)c-2oc2c(I)c(O)c(I)cc12 [Rose bengal]

Compound: O=C(OC[C@H]1O[C@@H](OC(=O)c2cc(O)c(O)c(OC(=O)c3cc(O)c(O)c(O)c3)c2)[C@H](OC(=O)c2cc(O)c(O)c(OC(=O)c3cc(O)c(O)c(O)c3)c2)[C@@H](OC(=O)c2cc(O)c(O)c(OC(=O)c3cc(O)c(O)c(O)c3)c2)[C@@H]1OC(=O)c1cc(O)c(O)c(OC(=O)c2cc(O)c(O)c(O)c2)c1)c1cc(O)c(O)c(OC(=O)c2cc(O)c(O)c(O)c2)c1 [Tannic acid (TA), Tannic acid]
- bonding constant with PEG-P[Lys(FPBA)10]20 as compared with PEG-FPBA [2]: 5 times
- relative equilibrium constant with PEG10k-P[Lys(FPBA)10]20 [2]: 8,827
- relative equilibrium constant with PEG-FPBA [3]: 1,877

Compound: Bleomycin sulfate
- Particle diameter of encapsulated substance [1]: 0.6 nm

Compound: Gelonin
- Particle diameter of encapsulated substance [1]: 4.1 nm

Compound: β-D-galactosidase: β-D-galactosidase (βGal): Mw 540 kDa, enzyme
- Particle diameter of encapsulated substance [1]: 13.9 nm
- Particle diameter of complex ([1]; ternary complex substance/TA/PEG-P[Lys(FPBA)10]20, dynamic light scattering method): 42.8* nm
- Polydiversity (PDI) ([1]; ternary complex, dynamic light scattering method): 0.18
